# From patent EP4745135A1 (Gluetacs Therapeutics (Shanghai) Co., Ltd., priority 2023, dated 2025)
# Columns and labels:
# [1] = biological target: T1, human Cereblon WT GST-tagged protein (Homo sapiens, UniProt Q96SW2); assay: CRBN-binding affinity, HTRF (CEREBLON BINDING kit); settings: for inhibition at 0.5 µM: read-out: Inhibition Rate at 0.5 µM (%); for inhibition at 2 µM: read-out: Inhibition Rate at 2 µM (%)
# T1 construct: purchased CISBIO 64BDCRBNPEH
# [2] = biological target: T2, IKZF3 (Homo sapiens, UniProt Q96SW2+Q9UKT9); assay: Western blot, degradation of substrate protein in hPBMCs; format: cell-based
# T2 construct: effects of the compounds of the present disclosure on the expression of target proteins in cells; endogenous in cells; host or cells: human PBMCs (Milecell Biotechnologies)
# T2 sequence (Q9UKT9 whole entry): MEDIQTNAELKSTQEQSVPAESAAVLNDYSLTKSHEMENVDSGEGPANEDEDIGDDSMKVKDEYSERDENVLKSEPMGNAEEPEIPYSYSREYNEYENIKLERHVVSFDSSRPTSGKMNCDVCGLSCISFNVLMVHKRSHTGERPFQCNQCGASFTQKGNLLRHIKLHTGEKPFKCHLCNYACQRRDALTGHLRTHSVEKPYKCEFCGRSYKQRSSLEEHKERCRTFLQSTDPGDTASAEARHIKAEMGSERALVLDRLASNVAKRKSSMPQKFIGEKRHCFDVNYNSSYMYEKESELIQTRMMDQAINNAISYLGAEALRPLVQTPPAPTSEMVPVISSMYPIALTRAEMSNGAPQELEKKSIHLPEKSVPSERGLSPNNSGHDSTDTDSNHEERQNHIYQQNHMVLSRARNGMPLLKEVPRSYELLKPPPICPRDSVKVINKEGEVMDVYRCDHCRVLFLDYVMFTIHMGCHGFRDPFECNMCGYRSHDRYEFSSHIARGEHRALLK
# T2 sequence (Q96SW2 whole entry): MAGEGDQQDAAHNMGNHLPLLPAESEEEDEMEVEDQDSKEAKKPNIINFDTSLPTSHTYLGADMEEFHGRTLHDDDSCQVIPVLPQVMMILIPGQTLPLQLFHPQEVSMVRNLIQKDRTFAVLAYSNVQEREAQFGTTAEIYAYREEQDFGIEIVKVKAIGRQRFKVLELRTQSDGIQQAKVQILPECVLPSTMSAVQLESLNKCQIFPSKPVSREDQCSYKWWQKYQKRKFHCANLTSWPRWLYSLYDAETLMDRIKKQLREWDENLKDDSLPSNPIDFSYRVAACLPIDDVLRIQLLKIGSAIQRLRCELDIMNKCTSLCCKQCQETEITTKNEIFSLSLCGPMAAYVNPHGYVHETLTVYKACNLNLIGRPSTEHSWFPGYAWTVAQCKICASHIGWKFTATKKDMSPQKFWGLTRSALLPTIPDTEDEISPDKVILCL
# T2 sequence (Q16531 whole entry partner): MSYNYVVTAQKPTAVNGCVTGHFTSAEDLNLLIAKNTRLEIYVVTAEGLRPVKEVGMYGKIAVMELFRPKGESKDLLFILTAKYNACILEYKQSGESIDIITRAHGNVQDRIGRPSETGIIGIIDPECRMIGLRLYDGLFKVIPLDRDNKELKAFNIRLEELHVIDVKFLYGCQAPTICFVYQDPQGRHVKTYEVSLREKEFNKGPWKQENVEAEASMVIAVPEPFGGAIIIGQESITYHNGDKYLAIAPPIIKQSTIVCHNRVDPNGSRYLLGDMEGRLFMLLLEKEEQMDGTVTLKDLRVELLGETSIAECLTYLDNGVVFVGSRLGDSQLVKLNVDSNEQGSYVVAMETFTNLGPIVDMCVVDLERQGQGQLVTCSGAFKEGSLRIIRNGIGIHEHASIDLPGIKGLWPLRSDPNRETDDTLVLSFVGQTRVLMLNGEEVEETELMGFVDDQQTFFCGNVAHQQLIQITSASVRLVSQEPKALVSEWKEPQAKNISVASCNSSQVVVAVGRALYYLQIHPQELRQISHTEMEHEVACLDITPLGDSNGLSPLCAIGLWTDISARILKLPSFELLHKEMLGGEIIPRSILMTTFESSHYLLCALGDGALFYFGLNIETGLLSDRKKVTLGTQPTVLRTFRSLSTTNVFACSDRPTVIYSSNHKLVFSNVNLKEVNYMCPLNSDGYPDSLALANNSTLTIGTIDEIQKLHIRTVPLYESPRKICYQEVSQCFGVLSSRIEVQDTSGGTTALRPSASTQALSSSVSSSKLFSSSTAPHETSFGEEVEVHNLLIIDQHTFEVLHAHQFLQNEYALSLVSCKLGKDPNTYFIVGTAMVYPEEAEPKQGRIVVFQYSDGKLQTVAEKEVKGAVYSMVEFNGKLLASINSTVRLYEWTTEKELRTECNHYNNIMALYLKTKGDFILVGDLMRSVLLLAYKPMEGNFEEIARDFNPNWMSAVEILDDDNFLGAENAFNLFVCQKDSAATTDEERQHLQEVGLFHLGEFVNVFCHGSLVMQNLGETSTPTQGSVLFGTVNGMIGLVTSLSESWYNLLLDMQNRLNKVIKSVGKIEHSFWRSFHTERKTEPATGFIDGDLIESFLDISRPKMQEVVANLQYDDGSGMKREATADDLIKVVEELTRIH
# [3] = biological target: T3, CK1α (Homo sapiens, UniProt P48729+Q96SW2); assay: as above; format: cell-based
# T3 construct: effects of the compounds of the present disclosure on the expression of target proteins in cells; endogenous in cells; host or cells: human PBMCs (Milecell Biotechnologies)
# T3 sequence (P48729 whole entry): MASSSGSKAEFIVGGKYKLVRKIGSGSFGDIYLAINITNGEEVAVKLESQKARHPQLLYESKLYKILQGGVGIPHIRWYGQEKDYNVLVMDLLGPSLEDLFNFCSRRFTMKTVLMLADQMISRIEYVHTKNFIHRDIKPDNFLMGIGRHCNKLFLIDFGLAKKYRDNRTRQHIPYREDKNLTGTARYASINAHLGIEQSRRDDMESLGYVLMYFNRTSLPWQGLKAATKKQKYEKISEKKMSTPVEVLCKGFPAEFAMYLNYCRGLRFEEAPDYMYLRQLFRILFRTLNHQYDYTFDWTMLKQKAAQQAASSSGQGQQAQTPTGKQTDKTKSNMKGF
# T3 sequence (Q96SW2 whole entry): as the sequence (Q96SW2 whole entry) above
# T3 sequence (Q16531 whole entry partner): as the sequence (Q16531 whole entry partner) above
# [4] = biological target: T4, IKZF2 (Homo sapiens, UniProt Q96SW2+Q9UKS7); assay: as above; format: cell-based
# T4 construct: effects of the compounds of the present disclosure on the expression of target proteins in cells; endogenous in cells; host or cells: human PBMCs (Milecell Biotechnologies)
# T4 sequence (Q9UKS7 whole entry): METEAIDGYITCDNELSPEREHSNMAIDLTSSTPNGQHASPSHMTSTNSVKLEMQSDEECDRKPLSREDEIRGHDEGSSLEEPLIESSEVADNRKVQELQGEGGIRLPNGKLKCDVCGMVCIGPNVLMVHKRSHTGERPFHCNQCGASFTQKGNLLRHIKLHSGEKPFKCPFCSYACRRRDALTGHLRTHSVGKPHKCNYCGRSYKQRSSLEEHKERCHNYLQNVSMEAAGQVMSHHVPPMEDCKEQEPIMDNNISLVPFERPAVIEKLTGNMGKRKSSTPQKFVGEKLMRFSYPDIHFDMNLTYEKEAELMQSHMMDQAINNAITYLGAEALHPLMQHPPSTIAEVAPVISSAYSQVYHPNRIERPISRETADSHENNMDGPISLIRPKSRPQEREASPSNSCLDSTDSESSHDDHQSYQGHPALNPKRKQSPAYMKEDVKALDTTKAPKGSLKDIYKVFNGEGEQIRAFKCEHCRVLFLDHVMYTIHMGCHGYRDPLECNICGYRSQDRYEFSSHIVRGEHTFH
# T4 sequence (Q96SW2 whole entry): as the sequence (Q96SW2 whole entry) above
# T4 sequence (Q16531 whole entry partner): as the sequence (Q16531 whole entry partner) above
# [5] = biological target: T5, IKZF1 (Homo sapiens, UniProt Q13422+Q96SW2); assay: as above; format: cell-based
# T5 construct: effects of the compounds of the present disclosure on the expression of target proteins in cells; endogenous in cells; host or cells: human PBMCs (Milecell Biotechnologies)
# T5 sequence (Q13422 whole entry): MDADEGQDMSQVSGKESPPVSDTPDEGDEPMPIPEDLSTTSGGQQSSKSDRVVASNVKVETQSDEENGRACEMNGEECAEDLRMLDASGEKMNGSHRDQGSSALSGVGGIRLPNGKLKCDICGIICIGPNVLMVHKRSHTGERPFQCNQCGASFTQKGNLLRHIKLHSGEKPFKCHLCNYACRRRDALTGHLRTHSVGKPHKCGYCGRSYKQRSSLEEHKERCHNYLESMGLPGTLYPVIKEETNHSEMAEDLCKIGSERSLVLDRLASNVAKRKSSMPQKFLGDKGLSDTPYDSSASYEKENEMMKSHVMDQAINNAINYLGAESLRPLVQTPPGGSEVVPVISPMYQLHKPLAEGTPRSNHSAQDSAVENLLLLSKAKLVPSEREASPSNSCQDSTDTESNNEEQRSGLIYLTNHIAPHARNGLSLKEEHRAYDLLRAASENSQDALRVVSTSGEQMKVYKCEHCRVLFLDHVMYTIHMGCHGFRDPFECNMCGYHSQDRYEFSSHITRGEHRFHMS
# T5 sequence (Q96SW2 whole entry): as the sequence (Q96SW2 whole entry) above
# T5 sequence (Q16531 whole entry partner): as the sequence (Q16531 whole entry partner) above
# [6] = biological target: T6, WEE1 (Homo sapiens, UniProt P30291+Q96SW2); assay: as above; format: cell-based
# T6 construct: effects of the compounds of the present disclosure on the expression of target proteins in cells; endogenous in cells; host or cells: human PBMCs (Milecell Biotechnologies)
# T6 sequence (P30291 whole entry): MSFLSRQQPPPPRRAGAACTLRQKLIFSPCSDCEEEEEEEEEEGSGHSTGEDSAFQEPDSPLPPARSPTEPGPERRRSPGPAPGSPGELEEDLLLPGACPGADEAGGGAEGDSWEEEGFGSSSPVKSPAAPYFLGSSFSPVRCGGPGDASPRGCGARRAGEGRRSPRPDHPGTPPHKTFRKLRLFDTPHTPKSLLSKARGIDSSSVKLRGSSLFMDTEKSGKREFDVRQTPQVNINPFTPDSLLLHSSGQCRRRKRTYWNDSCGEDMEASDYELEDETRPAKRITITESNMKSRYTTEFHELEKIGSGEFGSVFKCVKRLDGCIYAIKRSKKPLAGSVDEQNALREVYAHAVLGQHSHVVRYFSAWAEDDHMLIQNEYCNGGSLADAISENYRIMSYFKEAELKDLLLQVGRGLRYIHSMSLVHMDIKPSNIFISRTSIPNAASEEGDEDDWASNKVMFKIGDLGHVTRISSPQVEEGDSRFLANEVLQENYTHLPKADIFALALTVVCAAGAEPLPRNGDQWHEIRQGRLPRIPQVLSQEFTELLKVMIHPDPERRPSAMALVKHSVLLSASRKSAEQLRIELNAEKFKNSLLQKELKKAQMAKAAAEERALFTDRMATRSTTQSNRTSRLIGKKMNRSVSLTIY
# T6 sequence (Q96SW2 whole entry): as the sequence (Q96SW2 whole entry) above
# T6 sequence (Q16531 whole entry partner): as the sequence (Q16531 whole entry partner) above
# [7] = system: GSPT1; assay: as above; format: cell-based, Human
# [8] = 24 hours treatment, compounds at 50 nM and 500 nM (concentration behind the class not stated)
# [9] = Western blot, 24 hours of compound treatment, compounds tested at 50 nM and 500 nM (concentration for the table not stated)
# T1 sequence (Q96SW2 whole entry): as the sequence (Q96SW2 whole entry) above
Structure (SMILES),inhibition at 0.5 µM [1],inhibition at 2 µM [1],"IKZF3 substrate protein remaining % [2, 8]","CK1α substrate protein remaining % [3, 8]","IKZF2 substrate protein remaining % [4, 8]","IKZF 1 substrate protein remaining % [5, 8]","Wee1 substrate protein remaining % [6, 8]","GSPT1 substrate protein remaining % [7, 8]","IKZF3 substrate protein remaining % [2, 9]","CK1α substrate protein remaining % [3, 9]","IKZF2 substrate protein remaining % [4, 9]","IKZF 1 substrate protein remaining % [5, 9]","Wee1 substrate protein remaining % [6, 9]","GSPT1 substrate protein remaining % [7, 9]"
"O=C1CCC(N2Cc3c(CN4CCC(c5ccoc5)CC4)cccc3C2=S)C(=O)N1 (stereo not drawn) [GT-08317, 3-(4-((4-(furan-3-yl)piperidin-1-yl)methyl)-1-thioxoisoindolin-2-yl)piperidine-2,6-dione]",40 to 53%,60 to 80%,A (0% ≤ substrate protein remaining % ≤ 80%),B (80%< substrate protein remaining %≤ 100%),A (0% ≤ substrate protein remaining % ≤ 80%),B (80%< substrate protein remaining %≤ 100%),A (0% ≤ substrate protein remaining % ≤ 80%),B (80%< substrate protein remaining %≤ 100%),,,,,,
"Cc1cc(C2=CCN(Cc3cccc4c3CN(C3CCC(=O)NC3=O)C4=S)CC2)cs1 (stereo not drawn) [GT-08318, 3-(4-((4-(5-methylthiophen-3-yl)-3,6-dihydropyridin-1(2H)-yl)methyl)-1-thioxoisoindolin-2-yl)piperidine-2,6-dione]",40 to 53%,60 to 80%,A (0% ≤ substrate protein remaining % ≤ 80%),B (80%< substrate protein remaining %≤ 100%),B (80%< substrate protein remaining %≤ 100%),B (80%< substrate protein remaining %≤ 100%),A (0% ≤ substrate protein remaining % ≤ 80%),B (80%< substrate protein remaining %≤ 100%),,,,,,
"O=C1CCC(N2Cc3c(CN4CC=C(c5ccoc5)CC4)cccc3C2=S)C(=O)N1 (stereo not drawn) [GT-08319, 3-(4-((4-(furan-3-yl)-3,6-dihydropyridin-1 (2H)-yl)methyl)-1-thioxoisoindolin-2-yl)piperidine-2,6-dione]",40 to 53%,80 to 100%,A (0% ≤ substrate protein remaining % ≤ 80%),B (80%< substrate protein remaining %≤ 100%),B (80%< substrate protein remaining %≤ 100%),B (80%< substrate protein remaining %≤ 100%),A (0% ≤ substrate protein remaining % ≤ 80%),B (80%< substrate protein remaining %≤ 100%),,,,,,
"O=C1CCC(N2Cc3cc(CN4CCC(c5ccoc5)CC4)ccc3C2=S)C(=O)N1 (stereo not drawn) [GT-08326, 3-(5-((4-(furan-3-yl)piperidin-1-yl)methyl)-1-thioxoisoindolin-2-yl)piperidine-2,6-dione]",40 to 53%,80 to 100%,B (80%< substrate protein remaining %≤ 100%),A (0% ≤ substrate protein remaining % ≤ 80%),A (0% ≤ substrate protein remaining % ≤ 80%),B (80%< substrate protein remaining %≤ 100%),B (80%< substrate protein remaining %≤ 100%),A (0% ≤ substrate protein remaining % ≤ 80%),,,,,,
"O=C1CCC(N2Cc3c(CN4CCN(c5nsc6ccccc56)CC4)cccc3C2=S)C(=O)N1 (stereo not drawn) [GT-08366, 3-(4-((4-(benzo[d]isothiazol-3-yl)piperazin-1-yl)methyl)-1-thioxoisoindolin-2-yl)piperidine-2,6-dione]",60 to 80%,80 to 100%,,,,,,,B (80%< substrate protein remaining %≤ 100%),B (80%< substrate protein remaining %≤ 100%),B (80%< substrate protein remaining %≤ 100%),B (80%< substrate protein remaining %≤ 100%),A (0% ≤ substrate protein remaining % ≤ 80%),B (80%< substrate protein remaining %≤ 100%)
"O=C1CCC(N2Cc3c(CN4CCC(c5ccnc(F)c5F)CC4)cccc3C2=S)C(=O)N1 (stereo not drawn) [GT-08459, 3-(4-((4-(2,3-difluoropyridin-4-yl)piperidin-1-yl)methyl)-1-thioxoisoindolin-2-yl)piperidine-2,6-dione]",60 to 80%,80 to 100%,,,,,,,B (80%< substrate protein remaining %≤ 100%),B (80%< substrate protein remaining %≤ 100%),B (80%< substrate protein remaining %≤ 100%),B (80%< substrate protein remaining %≤ 100%),A (0% ≤ substrate protein remaining % ≤ 80%),B (80%< substrate protein remaining %≤ 100%)

# The next lines start with results.
inhibition at 0.5 µM [1],inhibition at 2 µM [1],Structure (SMILES),"IKZF3 substrate protein remaining % [2, 8]","CK1α substrate protein remaining % [3, 8]","IKZF2 substrate protein remaining % [4, 8]","IKZF 1 substrate protein remaining % [5, 8]","Wee1 substrate protein remaining % [6, 8]","GSPT1 substrate protein remaining % [7, 8]","IKZF3 substrate protein remaining % [2, 9]","CK1α substrate protein remaining % [3, 9]","IKZF2 substrate protein remaining % [4, 9]","IKZF 1 substrate protein remaining % [5, 9]","Wee1 substrate protein remaining % [6, 9]","GSPT1 substrate protein remaining % [7, 9]"
40 to 53%,60 to 80%,"O=C1CCC(N2Cc3c(CN4CCC(c5ccsc5)CC4)cccc3C2=S)C(=O)N1 (stereo not drawn) [GT-08315, 3-(4-((4-(thiophen-3-yl)piperidin-1-yl)methyl)-1-thioxoisoindolin-2-yl)piperidine-2,6-dione]",B (80%< substrate protein remaining %≤ 100%),B (80%< substrate protein remaining %≤ 100%),B (80%< substrate protein remaining %≤ 100%),B (80%< substrate protein remaining %≤ 100%),A (0% ≤ substrate protein remaining % ≤ 80%),B (80%< substrate protein remaining %≤ 100%),,,,,,
40 to 53%,60 to 80%,"O=C1CCC(N2Cc3c(CN4CCC(c5cccs5)CC4)cccc3C2=S)C(=O)N1 (stereo not drawn) [GT-08320, 3-(4-((4-(thiophen-2-yl)piperidin-1-yl)methyl)-1-thioxoisoindolin-2-yl)piperidine-2,6-dione]",A (0% ≤ substrate protein remaining % ≤ 80%),B (80%< substrate protein remaining %≤ 100%),B (80%< substrate protein remaining %≤ 100%),B (80%< substrate protein remaining %≤ 100%),A (0% ≤ substrate protein remaining % ≤ 80%),B (80%< substrate protein remaining %≤ 100%),,,,,,
30 to 40%,53 to 60%,"O=C1CCC(N2Cc3c(CN4CCC(c5cccc(F)c5F)CC4)cccc3C2=S)C(=O)N1 (stereo not drawn) [GT-08322, 3-(4-((4-(2,3-difluorophenyl)piperidin-1-yl)methyl)-1-thioxoisoindolin-2-yl)piperidine-2,6-dione]",B (80%< substrate protein remaining %≤ 100%),A (0% ≤ substrate protein remaining % ≤ 80%),A (0% ≤ substrate protein remaining % ≤ 80%),B (80%< substrate protein remaining %≤ 100%),A (0% ≤ substrate protein remaining % ≤ 80%),A (0% ≤ substrate protein remaining % ≤ 80%),,,,,,
60 to 80%,80 to 100%,"O=C1CCC(N2Cc3c(CN4CCc5sccc5C4)cccc3C2=S)C(=O)N1 (stereo not drawn) [GT-08333, 3-(4-((6,7-dihydrothieno[3,2-c]pyridin-5(4H)-yl)methyl)-1-thioxoisoindolin-2-yl)piperidine-2,6-dione]",B (80%< substrate protein remaining %≤ 100%),A (0% ≤ substrate protein remaining % ≤ 80%),B (80%< substrate protein remaining %≤ 100%),B (80%< substrate protein remaining %≤ 100%),A (0% ≤ substrate protein remaining % ≤ 80%),A (0% ≤ substrate protein remaining % ≤ 80%),,,,,,
40 to 53%,60 to 80%,"O=C1CCC(N2Cc3c(CN4CCn5c(nnc5C(F)(F)F)C4)cccc3C2=S)C(=O)N1 (stereo not drawn) [GT-08365, 3-(1-thioxo-4-((3-(trifluoromethyl)-5,6-dihydro-[1,2,4]triazolo[4,3-a]pyrazin-7(8H)-yl)methyl)isoindolin-2-yl)piperidine-2,6-dione]",,,,,,,B (80%< substrate protein remaining %≤ 100%),B (80%< substrate protein remaining %≤ 100%),B (80%< substrate protein remaining %≤ 100%),B (80%< substrate protein remaining %≤ 100%),B (80%< substrate protein remaining %≤ 100%),A (0% ≤ substrate protein remaining % ≤ 80%)
53 to 60%,80 to 100%,"O=C1CCC(N2Cc3c(CN4CCC(c5ccnc(Cl)c5Cl)CC4)cccc3C2=S)C(=O)N1 (stereo not drawn) [GT-08458, 3-(4-((4-(2,3-dichloropyridin-4-yl)piperidin-1-yl)methyl)-1-thioxoisoindolin-2-yl)piperidine-2,6-dione]",,,,,,,B (80%< substrate protein remaining %≤ 100%),B (80%< substrate protein remaining %≤ 100%),B (80%< substrate protein remaining %≤ 100%),B (80%< substrate protein remaining %≤ 100%),A (0% ≤ substrate protein remaining % ≤ 80%),B (80%< substrate protein remaining %≤ 100%)
